In US8354387B2, “Methods and compositions for delivering siRNA into mammalian cells” (Centre National de la Recherche Scientifique, priority 2004, dated 2013):

What was measured:
GAPDH = GAPDH protein levels by Western blotting after siRNA transfection; type: cell-based, human; details: for reduction of GAPDH protein levels: Hs68, 30 hrs post transfection
Description: FIG. 4: MPG-mediated delivery of siRNA induces a robust biological response. A/ MPG mediated delivery of siRNA targeting luciferase gene. MPG/siRNA or MPG^ΔNLS/DNA complexes were formed in DMEM at a charge ratio 10:1 and incubated for 30 min at 37° C., then overlaid onto Cos-7 or HeLa cells grown to 60% confluence and previously transfected with the pRL-SV40 plasmid (Promega) encoding the reporter gene luciferase under control of an SV40 promoter. After 30 min incubation at 37° C., 1 ml of fresh DMEM supplemented with 10% fetal calf serum was added onto the cells. Luciferase activity was measured 48 hrs after transfection. Transfections were also performed with Oligofectamine™ as a standard. Control experiments were performed with either naked siRNA or using a mismatch siRNA (dashed bars). B/ MPG-mediated delivery of siRNA targeting GAPDH gene: Western blot analysis. Different concentrations of siRNA (25, 50, 100 nM) were transfected with either MPG or MPG^ΔNLS and the levels of GAPDH protein were analyzed by Western blotting 30 hrs post transfection. Actin was used as a control to normalize protein loading. C/ MPG-mediated delivery of siRNA targeting GAPDH gene: Northern blot analysis. The kinetics of siRNA (50 nM)-induced degradation of GAPDH mRNA following transfection with either MPG or MPG^ΔNLS were analyzed by Northern blotting. Actin was used as a control to normalize mRNA levels in each sample. […]
To further understand the impact of the NLS in MPG, we examined the biological response of an siRNA targeting the GAPDH gene following transfection into human fibroblasts (Hs68). […] Different concentrations of siRNA (25, 50, 100 nM) were transfected with either MPG or MPG^ΔNLS and the levels of GAPDH protein were analyzed by Western blotting 30 hrs post transfection. […] The kinetics of siRNA-induced degradation of GAPDH mRNA following transfection with either MPG or MPG^ΔNLS were analyzed by Northern blotting. […]

Hs68 human fibroblasts = assay: Cellular uptake and localization of fluorescently labelled siRNA by fluorescence microscopy on living cells; type: cell-based; details: for final subcellular localization of fluorescently-labeled siRNA: GAPDH siRNA, molar ratio 10/1, Hs68, living cells; for efficiency of siRNA delivery into cultured cells (% cells): fluorescently-labelled GAPDH siRNA, carrier/siRNA molar ratio 10/1, Hs68, 30 min, with serum
Description: Hs68 (ATCC no CRL-1635), Cos-7 (ATCC no CRL-1651) and HeLa (ATCC no CCL-2) cell lines were cultured in Dulbecco's Modified Eagle's Medium supplemented with 2 mM glutamine, 1% antibiotics (streptomycin 10 000 μg/ml, penicillin, 10,000 IU/ml) and 10% (w/v) fetal calf serum (FCS) at 37° C. in a humidified atmosphere containing 5% CO2 as described previously (18). For MPG or MPG^ΔNLS-mediated gene delivery, peptide carrier/siRNA complexes were formed in DMEM or PBS, at a charge ratio 10:1 and incubated for 30 min at 37° C. Cells grown to 60% confluence were then overlaid with these preformed complexes. After 30 min incubation at 37° C., 1 ml of fresh DMEM supplemented with 10% fetal calf serum was added to the cells, without removing the overlay of carrier/siRNA, and cells were returned to the incubator.
Transfections were performed for 1 hour, after which cells were extensively washed and either analyzed by fluorescence microscopy in order to determine the cellular localization of the fluorescently labeled oligonucleotide or returned to the incubator at 37° C. in the presence of fresh medium supplemented with serum.
siRNA targeting the 3′UTR of GAPDH were from the Silencer™ GAPDH siRNA kit (Ambion). Fluorescent labeling of siRNA was performed using either the Fam or the Cy3 Silencer™ labeling kit (Ambion) and modified as described in the manufacturer's protocol. pRL-Luc reporter gene was from Promega and siRNA targeting luciferase sense ^5′[…]^3′ (SEQ ID NO:4) and antisense ^3′ […]^5′ (SEQ ID NO:5) and mismatch sense ^5′[…]^3′ (SEQ ID NO:6) and antisense ^3′[…]^5″ (SEQ ID NO:7) siRNA were obtained from Genset Oligos.
RNA interference (siRNA) constitutes a powerful tool to silence gene expression post-transcriptionally (28, 29). In order to validate the potential of MPG-like carriers, the ability of MPG and MPG^ΔNLS to promote cellular uptake of siRNA was investigated. Fluorescently-labelled siRNA designed to silence GAPDH were complexed with both MPG and MPG^ΔNLS at a molar ratio of 10/1, incubated onto cultured Hs68 human fibroblasts in the presence of serum for 30 min, following which internalization and subcellular localization of siRNA were examined by fluorescence microscopy. Two different fluorescent probes (fluorescein and Cy-3), were used in order to avoid any artefacts which might have been associated with the nature of the probe. As fixation procedures have sometimes been reported to cause artifactual uptake (30-32), experiments were performed on living cells.

GALFLGFLGAAGSTMGAWSQPKKKRKV (carrier peptide) [MPG, bipartite amphipathic peptide derived from fusion peptide domain of HIV-1 gp41 and NLS of SV40 large T antigen]
reduction of GAPDH protein levels (GAPDH; 100 nM siRNA): 60% | final subcellular localization of fluorescently-labeled siRNA (Hs68 human fibroblasts): localized rapidly to the nucleus | efficiency of siRNA delivery into cultured cells (% cells) (Hs68 human fibroblasts): about 90 % cells

GALFLGFLGAAGSTMGAWSQPKSKRKV (carrier peptide) [MPG^ΔNLS, MPG variant with single mutation of the second lysine residue in the NLS motif to serine]
reduction of GAPDH protein levels (GAPDH; 25 nM siRNA): 80% | efficiency relative to wild-type MPG (GAPDH; GAPDH siRNA, Hs68): at least 2 fold | final subcellular localization of fluorescently-labeled siRNA (Hs68 human fibroblasts): remained mostly in the cytoplasm | efficiency of siRNA delivery into cultured cells (% cells) (Hs68 human fibroblasts): about 90 % cells
